Assay results: paper PMC7714073, “Inhibition properties of free and conjugated leupeptin analogues” (FEBS Open Bio, 2020)
Non-standard residues stand in square brackets, D forms with d. Residues, ends and D or L forms follow the SMILES beside them. Ahx = NCCCCCC(=O)O

Experiments:
Assay type in all cases: biochemical, porcine
[1] = molecular target: T1, trypsin (Sus scrofa, UniProt P00761); experiment: Trypsin inhibition, real-time measurements of initial velocities with BAPA (free inhibitors); settings: apparent Ki, tight-binding (Morrison) fit; 0.1 M NH4HCO3 pH 7.52, 2% (v/v) DMSO, BAPA 1 mM, trypsin 0.25 µM, KM 0.82 mM, read at 410 nm
T1 construct: purchased Sigma-Aldrich; host or cells: porcine pancreas
T1 sequence (P00761 9-231): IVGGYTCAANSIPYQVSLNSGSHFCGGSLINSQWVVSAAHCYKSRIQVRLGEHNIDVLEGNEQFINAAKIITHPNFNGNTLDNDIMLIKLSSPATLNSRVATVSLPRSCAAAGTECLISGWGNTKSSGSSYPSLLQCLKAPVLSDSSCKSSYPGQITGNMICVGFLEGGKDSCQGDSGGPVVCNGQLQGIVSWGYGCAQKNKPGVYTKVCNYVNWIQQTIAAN
Procedure: Fig. 4 The ratio vi/v 0 is plotted as a function of the inhibitor peptide Ahx–Phe–Leu–Arg–COOH (A) and Ahx–Leu–Leu–Arg–COOH (B). […] Error bars represent standard deviation.
Kinetic parameters were obtained by measuring initial velocities in the presence of selected concentrations of natural leupeptin (0.14–1.62 µM), oxidized leupeptin (8–127 µM), reduced leupeptin (10–413 µM) and peptides 1 and 2 (8–254 µM). All reactions were performed in 0.1 M NH4HCO3 (pH 7.52) and 2% (v/v) DMSO using concentrations of BAPA and trypsin fixed at 1 mM and 0.25 µM, respectively. The reaction was monitored at 410 nm in a Shimadzu UV‐1601 UV‐Vis spectrophotometer.
(§1) For real‐time and end point measurements, the Ki value was estimated by the graphical method of Dixon and Morrison (Eqn 1). Ki was extracted after fitting the data to Eqns (1,2) using GRAPHPAD PRISM 8 (GraphPad Software, San Diego, CA, USA). A K M of 0.82 mM was used for the calculations.(1) vi/vo=1‐([E]+[I]+Kiapp)‐[E]+[I]+Kiapp^2‐4[E][I]/2[E]
(§2) The form of Kappi varies with the type of inhibitor. For competitive inhibitors, as in the case of leupeptin, the Ki value can be calculated from Eqn (2):(2) Kiapp=Ki1+[S]/KM

[2] = molecular target: T1, trypsin; experiment: Trypsin inhibition, end point measurements with BAPA (conjugated peptide); settings: for Efficiency: Ki,free/Ki,app = [I]eff/[I]tot, free Ahx–Phe–Leu–Arg–COOH as reference (1.00); for Ki: end point measurements
Procedure: Fig. 5 vi/v 0 is plotted as a function of the conjugated TiO2–Ahx–Phe–Leu–Arg–COOH (A), ZnO–Ahx–Phe–Leu–Arg–COOH (B) and WorkBeads™‐Ahx‐Phe‐Leu‐Arg‐COOH (C). […] Error bars represent standard deviation.
Kinetic parameters were obtained by mixing substrate, enzyme and conjugate in a plastic Eppendorf tube with varying concentrations of TiO2–peptide 1 0–70 μM, ZnO–peptide 1 0–60 μM and gel beads conjugated to peptide 1 0–60 μM and incubating with end‐over‐end rotation. A total of 150 µL aliquots was withdrawn at five time points for each reaction, and the reaction was stopped in 100 mM acetic acid (pH 3). Absorbance was measured at 410 nm in a UV‐1601 UV‐Vis spectrophotometer (Shimadzu, Columbia, MD, USA).
as §1, §2

[3] = molecular target: T1, trypsin; experiment: Gelatin erosion method: inhibition activity of free and conjugated peptide in gelatin layer; settings: for Rate (erosion well formation rate, linear regression): gel experiment; for Plateau (relative asymptotic plateau value, asymptotic area ratio at virtually maximal inhibition): gelatin erosion, relative area increase rate vs inhibitor concentration, fitted in GRAPHPAD PRISM 8
Description: The gelatin erosion method that simulates a surface with a protective cover layer is here used to evaluate the function of the peptide in its different conjugation states where the relative area increase rate is plotted against the increasing inhibitor concentration in Fig. 6. The curves obtained as a function of concentration for the free peptide and the TiO2‐conjugated peptide, respectively, are virtually identical. […] This may tentatively be explained by a model where the enzyme molecules, once ‘captured’ by the immobilized peptides, also interact nonspecifically with the ZnO surface, resulting in addition of binding energies and thus also cooperative binding. As has been noted earlier by us, the well area converges to an asymptotic nonzero value ‘plateau’ at high inhibitor concentration that is virtually identical for the different cases. The limit may actually be set by the size of the droplet applied and initial enzyme diffusion. However, the similar limiting values further confirm that the inhibition modes are identical for free and conjugated inhibitor. […] This is actually in accordance with the pattern observed for the ZnO conjugate. […] For details regarding the gelatin erosion method, see Fig. S3 and Table S2.
The experiments were performed as described earlier. The concentration of the free inhibitor Ahx–Phe–Leu–Arg–COOH was ranging from 5 to 50 μM, for ZnO conjugate 1–15 μM and for TiO2 conjugate 1–25 μM.
Table S2. The rates, given by the linear regression, are given below for the gel experiment for free Ahx-Phe-Leu-Arg-COOH and its conjugated state to TiO2 and ZnO.

[4] = molecular target: T1, trypsin; experiment: Kinetic measurements of TiO2-peptide conjugate (Vmax, Km; Fig. S2/Table S1); settings: trypsin with conjugate present, 0.1 M NH4HCO3 pH 7.52, trypsin 0.125 µM, 34 mg conjugate (6.06 nmol peptide/mg TiO2) per reaction
Procedure: Figure S2. Kinetic measurements of TiO2-peptide conjugate.
Table S1. Extracted values from figure S2. Experiment setup: Buffer 0.1 M NH4HCO3 pH 7.52, [Trypsin] (in eppendorf) = 0.125 µM, 34 mg TiO2-Ahx-Phe-Leu-COOH
(6.06 nmol mod. peptide/mg TiO2) in each reaction.

[5] = apparent Ki of conjugated peptide, five time points, stopped in 100 mM acetic acid pH 3, 410 nm, trypsin 0.25 μM, BAPA 1 mM, Km 0.82 mM, read-out: Ki
[6] = apparent Ki of the stored conjugate, storage time not given (conjugates stored at 4 °C), read-out: Ki stored

Q: With `CC(=O)N[C@@H](CC(C)C)C(=O)N[C@@H](CC(C)C)C(=O)N[C@H](C=O)CCCNC(=N)N` [Leupeptin, Ac–Leu–Leu–Arg–CHO] as the compound, how does the Ki [1] read?
A: The Ki was 0.088 ± 0.008 µM.

Q: Which results are given for “WorkBeads™‐Ahx‐Phe‐Leu‐Arg‐COOH [Ahx–Phe–Leu–Arg–COOH coupled to WorkBeads™ 40/1000 ACT agarose gel beads, 150 nmol·mL^−1 beads]”?
A: Efficiency [2]: 0.12; fraction of the conjugated peptides available for the enzyme ([2]; according to the efficiency, peptide conjugated to agarose gel beads): about 10%; Ki [2, 5]: 29 ± 4 µM; Ki [2, 6]: 53 ± 9 µM

Q: Which Ki [1] does the source give for `CC(C)C[C@H](NC(=O)CCCCCN)C(=O)N[C@@H](CC(C)C)C(=O)N[C@@H](CCCNC(=N)N)C(=O)O` [Ahx–Leu–Leu–Arg–COOH] (H-[Ahx]LLR-OH) here?
A: The Ki was 9.5 ± 1 µM.

Q: How did the Efficiency [2] turn out when ZnO–Ahx–Phe–Leu–Arg–COOH was run?
A: Its Efficiency is 0.77.

Q: What about the Ki [2, 5] of the same compound?
A: Its Ki is 4.4 ± 1.3 µM.

Q: And the Ki [2, 6]?
A: Its Ki is 7.6 ± 1.5 µM.

Q: What about the “Rate (erosion well formation rate, linear regression)” value (shortened to “Rate”) ([3]; 1 μM inhibitor) of the same compound?
A: The value was 3.1 ± 0.5 mm^2/ μMtrypsin.

Q: And the “Rate” value ([3]; 5 μM inhibitor)?
A: Its value is 2.3 ± 0.50 mm^2/ μMtrypsin.

Q: And the “Rate” value ([3]; 10 μM inhibitor)?
A: Its value is 2.2 ± 0.4 mm^2/ μMtrypsin.

Q: What about the “Rate” value ([3]; 15 μM inhibitor) of the same compound?
A: The value was 2.0 ± 0.5 mm^2/ μMtrypsin.

Q: What about the “Plateau (relative asymptotic plateau value, asymptotic area ratio at virtually maximal inhibition)” value [3] of the same compound?
A: Its value is 0.46 ± 0.02.

Q: Which Ki [1] does the source give for `CC(C)C[C@H](NC(=O)[C@H](Cc1ccccc1)NC(=O)CCCCCN)C(=O)N[C@@H](CCCNC(=N)N)C(=O)O` [Ahx–Phe–Leu–Arg–COOH, 6‐aminohexanoic acid (Ahx)–Phe–Leu–Arg–COOH] (H-[Ahx]FLR-OH) here?
A: The Ki was 3.4 ± 0.2 µM.

Q: For `CC(=O)N[C@@H](CC(C)C)C(=O)N[C@@H](CC(C)C)C(=O)N[C@H](CO)CCCNC(=N)N` [reduced leupeptin], which Ki [1] is on record?
A: Its Ki is 270 ± 100 µM.

Q: Which results are given for TiO2–Ahx–Phe–Leu–Arg–COOH?
A: Efficiency [2]: 0.32; Ki [2, 5]: 11 ± 2 µM; Ki [2, 6]: 7.1 ± 1.1 µM; Rate (erosion well formation rate, linear regression) ([3]; 1 μM inhibitor): 4.0 ± 0.4 mm^2/ μMtrypsin; Rate (erosion well formation rate, linear regression) ([3]; 5 μM inhibitor): 3.5± 0.4 mm^2/ μMtrypsin; Rate (erosion well formation rate, linear regression) ([3]; 10 μM inhibitor): 3.6 ± 0.1 mm^2/ μMtrypsin; Rate (erosion well formation rate, linear regression) ([3]; 15 μM inhibitor): 2.00 ± 0.1 mm^2/ μMtrypsin; Rate (erosion well formation rate, linear regression) ([3]; 25 μM inhibitor): 2.2 ± 0.3 mm^2/ μMtrypsin; Plateau (relative asymptotic plateau value, asymptotic area ratio at virtually maximal inhibition) [3]: 0.42 ± 0.21; Km ([4]; no inhibitor: 2.9 ± 0.8): 6.4 ± 1.2 mM; Vmax ([4]; no inhibitor: 720 ± 100): 250 ± 30

Q: Which Ki [1] does the source give for `CC(=O)N[C@@H](CC(C)C)C(=O)N[C@@H](CC(C)C)C(=O)N[C@@H](CCCNC(=N)N)C(=O)O` [oxidized leupeptin] here?
A: Its Ki is 2.7 ± 0.1 µM.
